Results on one compound are retold here after article PMC7004151, “Synthesis and Structure‐Activity Relationships of N‐(4‐Benzamidino)‐Oxazolidinones: Potent and Selective Inhibitors of Kallikrein‐Related Peptidase 6” (Chemmedchem, 2019).

In one data set the target is KLK4 (Homo sapiens, UniProt Q9Y5K2). Kind of data set: KLK4 inhibition (selectivity). It is filed as biochemical. The following applies: read-out: KLK4 pIC50 (converted). The source says: Table 3 Activity of synthesized inhibitors against KLK6 and related proteases. | column: KLK4^a
In another data set the target is T1, KLK7 (Homo sapiens, UniProt P49862).
T1 construct: purchased 2B scientific
Description: KLK7 enzyme inhibition assay. It is filed as biochemical. The following applies: read-out: KLK7 pIC50 (converted). On the procedure:
Enzyme inhibition assays: All chemicals were purchased from Sigma Aldrich (Gillingham, UK) unless otherwise stated. All experiments were conducted in 384 well black, low volume microplates (Greiner 784076) with a final volume of 20 μL and compounds were dispensed into assay plates using an ECHO 550 acoustic dispenser (Labcyte). KLK6 (5 nM) (prepared as in ref. 21) was incubated with test compounds for 30 min at room temperature in assay buffer (50 mM Tris, pH 7.5, 150 mM NaCl, 1 mM EDTA, 0.05 % tween 20, 0.1 % bovine serum albumin (BSA), 1 mM dithiothreitol (DTT)) before the reaction was started by addition of 20 μM Boc‐Phe‐Ser‐Arg‐AMC substrate (Bachem). Fluorescence intensity was read at ex/em 355/460 following incubation for 2 h in the dark at room temperature.
Assays using KLK7 and KLK8 (2B scientific) were conducted in the same manner as for KLK6 with the following exceptions. Both KLK7 and KLK8 required activation before assaying. KLK7 was combined with an equal volume of 20 μg/ml thermolysin (R&D systems) in activation buffer (50 mM Tris, pH 7.5, 10 mM CaCl2, 150 mM NaCl and 0.05 % Brij‐L23) and incubated at 37 °C for 2 h, the reaction was stopped with the addition of 100 mM EDTA in stop solution (50 mM Tris, 150 mM NaCl, pH 8.5). KLK8 was combined with an equal volume of 0.4 mU/mL lysyl endopeptidase (Alpha laboratories) in activation buffer (50 mM Tris, pH 8.0) and incubated at 37 °C for 30 min. Activated KLK7 (40 nM) and KLK8 (25 nM) were assayed with 40 μM Mca‐RPKPVE‐Nval‐WRK(Dnp)‐NH2 fluorogenic MMP substrate (R&D systems) and 25 μM Boc‐V‐P‐R‐AMC substrate (R&D systems), respectively.

Another data set concerns the target T2, Human trypsin (Homo sapiens, UniProt P07477).
T2 construct: purchased Polymun Scientific
Description: Trypsin enzyme inhibition assay. Type of data set: biochemical. Particulars: read-out: Trypsin pIC50 (converted). On the procedure:
Human thrombin was purchased from Biopur. Human trypsin was purchased from Polymun Scientific. Human Factor Xa was purchased from Enzo Life Sciences. […] Fluorescence intensity was then read at ex/em 485/535 following incubation for 1 h at room temperature (thrombin and factor Xa) or 20 min (trypsin).

The target in another data set is T3, CYP1A2 (Homo sapiens, UniProt P05177).
T3 construct: purchased Cypex; host or cells: bacterial membranes (bactosomes)
T3 sequence (P05177 1-516): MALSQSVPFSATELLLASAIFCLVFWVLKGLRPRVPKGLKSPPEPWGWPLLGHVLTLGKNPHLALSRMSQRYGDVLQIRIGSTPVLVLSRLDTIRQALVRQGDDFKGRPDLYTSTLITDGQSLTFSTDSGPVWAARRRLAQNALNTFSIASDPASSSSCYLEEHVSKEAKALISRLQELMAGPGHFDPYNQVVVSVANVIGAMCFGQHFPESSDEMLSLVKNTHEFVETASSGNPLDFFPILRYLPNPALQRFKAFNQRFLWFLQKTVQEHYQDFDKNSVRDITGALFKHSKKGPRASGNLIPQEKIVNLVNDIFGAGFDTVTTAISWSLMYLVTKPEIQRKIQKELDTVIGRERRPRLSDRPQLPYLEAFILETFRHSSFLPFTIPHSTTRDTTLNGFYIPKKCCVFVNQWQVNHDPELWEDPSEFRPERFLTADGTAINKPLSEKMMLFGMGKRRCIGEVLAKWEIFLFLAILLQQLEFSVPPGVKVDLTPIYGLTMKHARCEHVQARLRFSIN
Kind of data set: Fluorescence-based CYP inhibition, CYP bactosomes. It is filed as in vitro ADME. Particulars: read-out: CYP Inhibition IC50 1A2. The protocol: (§1) Fluorescence-based CYP Inhibition using recombinantly expressed CYP bactosomes: Fluorescence CYP inhibition studies were conducted at 37 °C in 96-well, flat-bottom, clear polystyrene plates. Incubation mixtures containing […] bactosomes (1000 pmol/mL, 10 mg/mL Cypex TM), fluorigenic substrate (Cypex TM) and 50 mM potassium phosphate buffer (pH 7.4) were prepared at the following final concentrations: CYP1A2, 5 pmol/mL+0.5 μM Ethoxyresorufin (ER); […] Bactosome control protein was included in reactions to give a final concentration of 0.025 mg/mL. Reaction times were verified to be within the limits of kinetics linearity. For each isoform, 220 μL of incubation mix was added to each well of a 96-well, flat-bottom, clear polystyrene plate. […] Reactions were initiated by the addition of 25 μL regenerating cofactor solution (23 mM Glucose-6-Phosphate, 2.2 mM NADP, 6 Units per ml Glucose-6-Phosphate Dehydrogenase (from Baker's yeast S. cerevisiae) in 2 % w/v NaHCO3, Sigma) and subsequent production of fluorescence metabolite measured at 1 min intervals over a 10 min period using a BMG Optima fluorescence detector (ER: Exc 530 nm, Em 590 nm, MFC: Exc 410 nm, Em 530 nm, CEC: Exc 410 nm, Em 530 nm, MAMC: Exc 405 nm, Em 460 nm, DEF: Exc 405 nm, Em 560 nm, 7BQ: Exc 485 nm, Em 530 nm). Fluorescence responses were adjusted to a percentage of uninhibited control before plotting against compound concentration and deriving the IC50 by fitting to a 4 parameter logistic regression model.

The next data set addresses T4, CYP2C19 (Homo sapiens, UniProt P33261).
T4 construct: purchased Cypex; host or cells: bacterial membranes (bactosomes)
Description: Fluorescence-based CYP inhibition, CYP bactosomes. Type of data set: in vitro ADME. Particulars: recombinantly expressed CYP bactosomes (EasyCYP), pH 7.4, probe 3-Cyano-7-Ethoxycoumarin (CEC), 25 μM, read-out: CYP Inhibition IC50 2C19. The protocol:
as §1

For a further data set, the target named is T5, CYP2C9 (Homo sapiens, UniProt P11712).
T5 construct: purchased Cypex; host or cells: bacterial membranes (bactosomes)
Description: Fluorescence-based CYP inhibition, CYP bactosomes. The following applies: read-out: CYP Inhibition IC50 2C9. Type of data set: in vitro ADME. The protocol: as §1

The target in the next data set is T6, CYP2D6 (Homo sapiens, UniProt P10635).
T6 construct: purchased Cypex; host or cells: bacterial membranes (bactosomes)
Description: Fluorescence-based CYP inhibition, CYP bactosomes. The following applies: read-out: CYP Inhibition IC50 2D6. Type of data set: in vitro ADME. The protocol: as §1

For the next data set, the target named is T7, CYP3A4 (Homo sapiens, UniProt P08684).
T7 construct: purchased Cypex; host or cells: bacterial membranes (bactosomes)
Kind of data set: Fluorescence-based CYP inhibition, CYP bactosomes. It is filed as in vitro ADME. The following applies: read-out: CYP Inhibition IC50 3A4. The protocol: as §1

Another data set can be described thus: in vitro. The following applies: female, CD1, mouse, plasma.

What is called fraction unbound is free concentration divided by total concentration.

Some results are limits rather than exact numbers.

Sequence of KLK4 (Q9Y5K2 31-254, species assumed): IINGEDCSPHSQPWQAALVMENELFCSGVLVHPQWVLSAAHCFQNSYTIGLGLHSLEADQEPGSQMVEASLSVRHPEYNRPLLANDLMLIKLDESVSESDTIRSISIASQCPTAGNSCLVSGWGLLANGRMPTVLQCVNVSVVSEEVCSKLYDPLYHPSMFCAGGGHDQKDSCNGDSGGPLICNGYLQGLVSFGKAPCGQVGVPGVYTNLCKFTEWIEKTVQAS
T6 sequence (P10635 whole entry): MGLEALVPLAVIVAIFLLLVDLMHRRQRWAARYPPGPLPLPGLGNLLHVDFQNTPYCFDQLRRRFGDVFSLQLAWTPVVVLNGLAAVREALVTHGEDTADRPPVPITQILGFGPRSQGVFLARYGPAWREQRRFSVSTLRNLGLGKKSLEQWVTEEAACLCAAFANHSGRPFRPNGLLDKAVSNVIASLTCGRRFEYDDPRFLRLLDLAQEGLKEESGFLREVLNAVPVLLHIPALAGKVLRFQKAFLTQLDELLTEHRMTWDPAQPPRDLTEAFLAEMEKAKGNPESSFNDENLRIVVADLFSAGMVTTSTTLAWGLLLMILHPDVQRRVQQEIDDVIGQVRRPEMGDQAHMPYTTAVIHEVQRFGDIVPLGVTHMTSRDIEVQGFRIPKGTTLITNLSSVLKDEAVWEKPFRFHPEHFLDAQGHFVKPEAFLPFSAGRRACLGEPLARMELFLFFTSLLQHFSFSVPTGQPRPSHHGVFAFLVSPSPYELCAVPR
T5 sequence (P11712 whole entry): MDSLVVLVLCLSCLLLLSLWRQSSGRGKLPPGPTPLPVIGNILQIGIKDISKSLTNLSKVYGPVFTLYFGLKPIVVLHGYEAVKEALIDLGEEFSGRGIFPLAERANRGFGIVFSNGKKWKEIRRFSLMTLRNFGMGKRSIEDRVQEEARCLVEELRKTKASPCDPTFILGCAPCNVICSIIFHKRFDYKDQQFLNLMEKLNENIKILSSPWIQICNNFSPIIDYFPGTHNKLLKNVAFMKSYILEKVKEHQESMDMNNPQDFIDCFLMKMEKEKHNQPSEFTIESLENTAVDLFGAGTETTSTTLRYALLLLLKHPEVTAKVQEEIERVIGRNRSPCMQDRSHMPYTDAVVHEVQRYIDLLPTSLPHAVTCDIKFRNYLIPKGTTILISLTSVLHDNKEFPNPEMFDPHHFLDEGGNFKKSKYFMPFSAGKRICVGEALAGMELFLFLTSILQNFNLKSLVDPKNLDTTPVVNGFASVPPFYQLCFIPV
T4 sequence (P33261 whole entry): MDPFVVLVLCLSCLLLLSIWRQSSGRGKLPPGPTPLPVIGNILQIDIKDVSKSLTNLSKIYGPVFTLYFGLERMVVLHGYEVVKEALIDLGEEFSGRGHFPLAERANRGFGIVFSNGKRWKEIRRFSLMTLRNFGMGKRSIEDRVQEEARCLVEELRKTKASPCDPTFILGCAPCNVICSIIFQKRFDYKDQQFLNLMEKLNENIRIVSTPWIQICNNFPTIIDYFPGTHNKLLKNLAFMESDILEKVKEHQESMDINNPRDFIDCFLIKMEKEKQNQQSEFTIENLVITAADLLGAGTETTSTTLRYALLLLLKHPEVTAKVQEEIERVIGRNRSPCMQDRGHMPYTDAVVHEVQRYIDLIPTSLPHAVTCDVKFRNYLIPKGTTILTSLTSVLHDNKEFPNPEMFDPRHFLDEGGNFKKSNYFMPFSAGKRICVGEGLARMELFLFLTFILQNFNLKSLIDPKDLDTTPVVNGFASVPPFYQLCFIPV
T1 sequence (P49862 30-253, species assumed): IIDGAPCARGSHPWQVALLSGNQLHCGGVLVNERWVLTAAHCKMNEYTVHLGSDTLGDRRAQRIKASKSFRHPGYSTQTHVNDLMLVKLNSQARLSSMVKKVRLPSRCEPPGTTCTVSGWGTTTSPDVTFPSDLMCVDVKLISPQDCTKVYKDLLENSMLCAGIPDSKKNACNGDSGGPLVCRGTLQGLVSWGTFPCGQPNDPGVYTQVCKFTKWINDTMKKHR
T7 sequence (P08684 whole entry): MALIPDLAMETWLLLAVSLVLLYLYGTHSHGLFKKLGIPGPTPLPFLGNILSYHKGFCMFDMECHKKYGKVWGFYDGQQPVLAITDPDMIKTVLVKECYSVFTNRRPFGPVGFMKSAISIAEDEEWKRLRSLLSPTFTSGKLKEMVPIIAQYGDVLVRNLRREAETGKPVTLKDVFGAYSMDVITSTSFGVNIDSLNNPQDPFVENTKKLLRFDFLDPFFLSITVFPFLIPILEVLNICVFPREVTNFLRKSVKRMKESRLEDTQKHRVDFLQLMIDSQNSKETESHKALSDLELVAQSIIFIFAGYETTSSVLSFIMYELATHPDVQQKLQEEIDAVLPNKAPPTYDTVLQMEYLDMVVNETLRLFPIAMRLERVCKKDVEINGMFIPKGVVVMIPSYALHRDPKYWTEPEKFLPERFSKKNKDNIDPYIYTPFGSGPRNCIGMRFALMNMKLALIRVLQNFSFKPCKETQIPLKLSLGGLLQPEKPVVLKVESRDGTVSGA
Description for in vitro: Plasma protein binding assay: Briefly, a 96 well equilibrium dialysis apparatus was used to determine the free fraction in plasma for each compound (HT Dialysis LLC, Gales Ferry, CT). Membranes (12–14 kDa cut‐off) were conditioned in deionized water for 60 minutes, followed by conditioning in 80 : 20 deionized water: ethanol for overnight at 4 °C and then rinsed in isotonic buffer before use. Female CD1 mouse plasma was removed from the freezer and allowed to thaw on the day of experiment. Thawed plasma was then centrifuged (Allegra X12‐R, Beckman Coulter, USA), spiked with test compound (final concentration 10 μg/mL), and 150 μL aliquots (n=6 replicate determinations) loaded into the 96‐well equilibrium dialysis plate. Dialysis vs isotonic buffer (150 μL) was carried out for 5 h in a temperature‐controlled incubator at 37 °C (Barworld scientific Ltd, UK) using an orbital microplate shaker at 100 rpm (Barworld scientific Ltd, UK). […] All samples were analyzed by UPLC‐MS/MS on a Quattro Premier XE Mass Spectrometer (Waters Corporation, USA). The unbound fraction was determined as the ratio of the peak area in buffer to that in plasma.

Take `CC[C@H](NC(=O)[C@H]1CN(c2ccc(C(=N)N)cc2)C(=O)O1)c1cccc2ccccc12` [Compound 32, (5R)‐3‐(4‐carbamimidoylphenyl)‐N‐((S)‐1‐(naphthalen‐1‐yl)propyl)‐2‐oxooxazolidine‐5‐carboxamide]: the IC50 on KLK4 is 0.158 µM; at KLK7, over 20 µM; on Human trypsin it was 0.0631 µM; at CYP1A2, over 10 µM; on CYP2C9, over 10 µM; at CYP2D6, over 10 µM. On CYP3A4, the IC50 amounted to 4.8 µM. Besides, the IC50 at 10 min at CYP2C19 is 7.9 µM. This compound also gave a fraction unbound at 5 h, 10 μg/mL in the data set “in vitro” of 0.11.
